The nature of series [1]: H+/Na+ transport assay of bead-derived peptides (one-point).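 Also: relative to parent gramicidin A activity set to 1.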 The format is biochemical. Further details: key: relative activity; mean of two control wells = 1.00. The note with it: bead-derived peptide solution, EYPC/EYPG LUVs. The method, boiled down:
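Pyranine (1.0 mM)-loaded LUVs containing egg yolk phosphatidylglycerol were prepared by film hydration, sonication and extrusion, then mixed with diluted bead-derived peptide in 96-well format and vortexed 30 min at room temperature. Fluorescence was normalized between untreated LUVs (0%) and Triton X-100 lysis (100%).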

The test system of series [2] is P388 mouse leukemia cells. Conditions: 92 h. Put shortly: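 P388 cells at 1 × 10^4 cells/mL (final) were exposed to library peptides (stocks diluted 250-fold in RPMI1640/10% FBS) for 92 h at 37 °C, 5% CO2. Viable cells were counted by WST-1/1-methoxy PMS (4 h), absorbance 415 nm, and expressed as cell viability (%).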
Series [3] concerns Streptococcus pyogenes SSI-9. Put plainly: Antibacterial activity assay of bead-derived peptides (three concentrations). The format is cell-based. More on the design: key: +++: inhibition by the 640-fold diluted peptide solution; ++: inhibition by the 160-fold diluted solution; +: inhibition by the 40-fold diluted solution; -: no inhibition. Conditions: S. pyogenes, bead-derived peptide solution, three concentrations. Put shortly: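 Undiluted, 4-fold and 16-fold DMSO-diluted peptide stocks; S. pyogenes SSI-9, 2 × 10^5 CFU, cation-adjusted MHB (50 mg/L Ca2+, 25 mg/L Mg2+) + 5% laked horse blood; 37 °C, 18 h; readout = cell pellet visible or not.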

Where a SMILES comes first, the peptide text is derived from it. [ ]: non-standard residue; d: D form. The star is where a group is joined. NHCH2CH2OH = OCCN*; For = O=C*

As for `CC(C)C[C@@H](NC(=O)[C@H](C)NC(=O)CNC(=O)[C@@H](NC=O)C(C)C)C(=O)N[C@@H](C)C(=O)N[C@@H](C(=O)N[C@H](C(=O)N[C@H](CC(C)C)C(=O)N[C@@H](Cc1c[nH]c2ccccc12)C(=O)N[C@@H](C(=O)N[C@@H](Cc1c[nH]c2ccccc12)C(=O)N[C@H](CC(C)C)C(=O)N[C@@H](Cc1c[nH]c2ccccc12)C(=O)N[C@@H](C(=O)N[C@@H](Cc1c[nH]c2ccccc12)C(=O)NCCO)[C@H](C)O)C(C)C)C(C)C)C(C)C` [compound 1522] (For-VGA[dL]A[dV]V[dL]W[dV]W[dL]W[dT]W-NHCH2CH2OH), in series [1], the “H+/Na+ transport activity normalized against the value of 1 (1.00)” value stood at 1.03. The compound further returned a cell viability/% in series [2] of 100.0%. In series [3], the antibacterial activity entry is “-”.
On the same counts, the results for `CC(C)C[C@@H](NC(=O)[C@H](Cc1c[nH]c2ccccc12)NC(=O)[C@H](NC(=O)[C@H](Cc1c[nH]c2ccccc12)NC(=O)[C@H](NC(=O)[C@H](Cc1c[nH]c2ccccc12)NC(=O)[C@H](NC(=O)[C@@H](NC(=O)[C@H](NC(=O)[C@H](C)NC(=O)[C@H](NC(=O)[C@H](C)NC(=O)CNC(=O)[C@@H](NC=O)C(C)C)C(C)C)C(C)C)C(C)C)C(C)C)C(C)C)C(C)C)C(=O)N[C@@H](Cc1c[nH]c2ccccc12)C(=O)NCCO` [compound 10699] (For-VGA[dV]A[dV]V[dV]W[dV]W[dV]W[dL]W-NHCH2CH2OH) are 1.09, 100.0% and “-”.
`CC(C)C[C@@H](NC(=O)[C@H](Cc1c[nH]c2ccccc12)NC(=O)[C@H](NC(=O)[C@H](Cc1c[nH]c2ccccc12)NC(=O)[C@H](NC(=O)[C@@H](NC(=O)[C@H](NC(=O)[C@H](C)NC(=O)[C@H](NC(=O)[C@H](C)NC(=O)CNC(=O)[C@@H](NC=O)C(C)C)[C@H](C)O)C(C)C)C(C)C)C(C)C)C(C)C)C(=O)N[C@@H](Cc1c[nH]c2ccccc12)C(=O)N[C@@H](C(=O)N[C@@H](Cc1c[nH]c2ccccc12)C(=O)NCCO)C(C)C` [compound 10653] (For-VGA[dT]A[dV]V[dV]W[dV]W[dL]W[dV]W-NHCH2CH2OH): in series [1], the “H+/Na+ transport activity normalized against the value of 1 (1.00)” value was 1.04. In series [2], this compound came in with a cell viability/% of 44.1%. The antibacterial activity result in series [3] is recorded as “-”.
For `CC(C)C[C@@H](NC(=O)[C@H](Cc1c[nH]c2ccccc12)NC(=O)[C@H](NC(=O)[C@H](Cc1c[nH]c2ccccc12)NC(=O)[C@@H](CC(C)C)NC(=O)[C@@H](NC(=O)[C@H](NC(=O)[C@H](C)NC(=O)[C@H](NC(=O)[C@H](C)NC(=O)CNC(=O)[C@@H](NC=O)C(C)C)[C@H](C)O)C(C)C)C(C)C)C(C)C)C(=O)N[C@@H](Cc1c[nH]c2ccccc12)C(=O)N[C@@H](C(=O)N[C@@H](Cc1c[nH]c2ccccc12)C(=O)NCCO)C(C)C` [compound 182] (For-VGA[dT]A[dV]V[dL]W[dV]W[dL]W[dV]W-NHCH2CH2OH), in that order: 1.16, 100.0% and “-”.
On the same counts, the results for `CC(C)C[C@@H](NC(=O)[C@H](C)NC(=O)[C@H](NC(=O)[C@H](C)NC(=O)CNC(=O)[C@@H](NC=O)C(C)C)C(C)C)C(=O)N[C@H](C(=O)N[C@H](CC(C)C)C(=O)N[C@@H](Cc1c[nH]c2ccccc12)C(=O)N[C@@H](C(=O)N[C@@H](Cc1c[nH]c2ccccc12)C(=O)N[C@H](CC(C)C)C(=O)N[C@@H](Cc1c[nH]c2ccccc12)C(=O)N[C@@H](C(=O)N[C@@H](Cc1c[nH]c2ccccc12)C(=O)NCCO)C(C)C)C(C)C)C(C)C` [compound 906] (For-VGA[dV]A[dL]V[dL]W[dV]W[dL]W[dV]W-NHCH2CH2OH) are 1.06, 100.0% and “+”.

The record behind these values is article PMC7531004, “Discovery of gramicidin A analogues with altered activities by multidimensional screening of a one-bead-one-compound library” (Nature Communications, 2020).
